This note sets out measurements from ChEMBL document CHEMBL3576796, “A Broad Anti-influenza Hybrid Small Molecule That Potently Disrupts the Interaction of Polymerase Acidic Protein-Basic Protein 1 (PA-PB1) Subunits” (J Med Chem, 2015).

SMILES strings stand for the structures.

The EC50 is the concentration at which the effect is half-maximal.

A short description of this experiment: Antiviral activity against Influenza A virus A/Parma/24/09 (H1N1) (Oseltamivir-resistant) assessed as reduction in plaque formation after 48 hrs by plaque reduction assay. It is filed as functional, Influenza A virus (A/Parma/24/2009(H1N1)). For orientation: Plaque reduction counts the foci of infection that form in a cell layer.
Turning to `CCCOc1ccc(C(=O)Nc2nc3n(n2)C(c2ccccc2)C=C(C)N3)cc1` (centres undefined), the EC50 stood at 49 µM. With `Cc1cc(-c2ccccc2)nc2nc(NC(=O)c3ccccc3)nn12`, the EC50 was 25 µM. On to `Cc1cc(-c2ccccc2)n2nc(C(=O)Nc3sc4c(c3C(N)=O)CCCCC4)nc2n1`, for which the EC50 came out at 25 µM. Under `Cc1cc(-c2ccccc2)nc2nc(C(=O)Nc3sc4c(c3C(N)=O)CCCCC4)nn12` stands 5 µM.
